This is an account of results in article PMC8269059, “Glycyrrhizin Derivatives Suppress Cancer Chemoresistance by Inhibiting Progesterone Receptor Membrane Component 1” (Cancers, 2021).

Series [1] deals with EGF uptake in HCT116 cells. Put plainly: Alexa Fluor 488 EGF uptake in HCT116 cells. The conditions noted are these: HCT116, microscopy and flow cytometry, 5 min, vs control cells. Type of series: cell-based, human. As to the method:
For the analysis of EGF and LDL uptake, HCT116 cells were incubated with serum-free DMEM supplemented with Alexa Fluor 488 EGF complex or Alexa Fluor 488 acetylated LDL to a final concentration of 1 µg/L at 37 °C for 5 min. For immunofluorescence microscopy analyses, HCT116 cells treated with Alexa Fluor 488-labeled EGF or LDL were fixed with 4% paraformaldehyde for 20 min and incubated in 10 mg/L DAPI for 15 min. The cells were observed using a BZ-x800 fluorescence microscope (Keyence, IL, USA). For flow cytometry analysis, HCT116 cells treated with Alexa Fluor 488-labeled EGF or LDL were detached using trypsin/EDTA and suspended in PBS. The mean fluorescent intensity per 10,000 cells was analyzed using a flow cytometer (Gallios, Beckman Coulter Life Science, Pasadena, CA, USA). The data were analyzed using Kaluza 2.1 analysis software (Beckman Coulter Life Science).
On the technique in general: Flow cytometry measures light scatter and fluorescence of single cells or particles in a stream.

The target in a further series is T1, HMGB1 (Homo sapiens, UniProt P09429).
T1 construct: human HMGB1 full-length cDNA was cloned from cDNA library of HCT116 cells; GST (N, cleaved yes); made in house; host or cells: E. coli BL21 (DE3)
T1 sequence (P09429 whole entry): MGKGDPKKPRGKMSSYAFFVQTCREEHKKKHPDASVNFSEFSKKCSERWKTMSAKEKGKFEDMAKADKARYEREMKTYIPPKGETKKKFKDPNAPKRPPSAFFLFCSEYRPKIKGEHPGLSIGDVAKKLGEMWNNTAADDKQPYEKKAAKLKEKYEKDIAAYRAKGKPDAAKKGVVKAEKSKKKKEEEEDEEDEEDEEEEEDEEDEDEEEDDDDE
Put plainly: ITC binding to HMGB1. As to conditions: HMGB1 80 µM, compound 3 mM. The text has this:
Bacterial expression vectors pGEX-PGRMC1 (human PGRMC1 intracellular domain residues 43-195) and mammalian FLAG-tagged expression vector pCMV-FLAG-PGRMC1 (full-length) were constructed as described previously. Expression vectors for PGRMC1 point mutants were generated by site-directed mutagenesis with PCR. For construction of HMGB1 expression vector, human HMGB1 full-length cDNA was cloned from cDNA library of HCT116 cells using the primers (Forward: 5′-[…]-3′, Reverse: 5′-[…]-[…]-3′), digested with Bam HI and Sal I, and then ligated into pGEX6P1.
Expression vectors (pGEX-PGRMC1 (residues 43-195) or pGEX-HMGB1) were transformed into BL21 (DE3) competent E. coli cells, and the cells incubated in LB medium with ampicillin at 37 °C until the OD600 reached 0.8. Protein expression was induced by adding 1 mM isopropyl-β-thiogalactopyranoside (IPTG) and incubating at 37 °C for 4 h. […]
ITC experiments were performed at 298 K with ITC-Buffer (50 mM phosphate [pH 7.0]) using a MicroCal iTC200 (Malvern Panalytical, Malvern, UK). […] Binding isotherms were analyzed using SEDPHAT [35]. The binding of AG205 to apo- or heme-PGRMC1 (100 μM) was analyzed using a concentration of 3 mM containing 1% DMSO. […]

Series [2] has as its target T2, interaction between PGRMC1 and CYP3A4 (Homo sapiens, UniProt O00264).
T2 construct: FLAG-PGRMC1 (a.a. 44-195); Sigma (CYP3A4 only) C4982 (CYP3A4 only)
In words: In vitro binding assay between PGRMC1 and CYP3A4. As to conditions: purified proteins, co-IP. On the procedure: For in vitro binding assays between PGRMC1 and CYP3A4, 1 μg of purified CYP3A4 proteins (Sigma: C4982) were incubated with 10 μg of FLAG-PGRMC1 (a.a. 44-195) treated with or without GL or GlucoGL in 500 μL of binding buffer containing 20 mM HEPES-NaOH (pH 7.9), 100 mM NaCl, 0.2 mM EDTA, 10% glycerol, and 0.1% NP40 for 60 min at room temperature. Then, 10 μL of equilibrated anti-FLAG (M2) agarose was added to the mixture, which was then incubated for 60 min at room temperature. Bound proteins were washed three times with 200 μL of binding buffer and eluted with 10 μL of 2 μg/mL FLAG elution peptide (Sigma: F4799). The eluates were subjected to SDS–PAGE and visualized by Western blotting using antibodies against CYP3A4 (Santa Cruz: sc-53850) and FLAG.

Another series concerns HCT116 cells. In words: Chemosensitivity MTT assay in HCT116 cells. The series is classed as cell-based, human. As to conditions: Homo sapiens, HCT-116, HCT116 cell viability, MTT. In general terms: Tetrazolium dyes change colour on reduction, which living cells bring about.
The test system of another series is HuH7 cells. Put plainly: Chemosensitivity MTT assay in HuH7 cells. The series is classed as cell-based, human. As to the method:
The HCT116 cells, a human colon cancer cell line, and HuH7 cells, a human hepatoma cell line, were maintained in Dulbecco’s modified Eagle’s medium (DMEM) containing 10% fetal bovine serum (FBS) and 1% penicillin-streptomycin at 37 °C in a 5% CO2 humidified incubator. The PGRMC1 knockdown (KD) cell line was established in a previous study using lentivirus vectors.
To analyze the chemosensitivity of HCT116 or HuH7 cells, the cells were incubated with erlotinib (20 µM) or CDDP (10 µM) and either GL or GL derivatives for 24 h on a 96-well plate. Cell viability was determined using an MTT assay kit (Millipore, Burlington, MA, USA) according to the manufacturer’s instructions.

In a further series the target is T3, EGFR kinase (Homo sapiens, UniProt P00533).
T3 construct: purchased BPS Bioscience
T3 sequence (P00533 25-1210): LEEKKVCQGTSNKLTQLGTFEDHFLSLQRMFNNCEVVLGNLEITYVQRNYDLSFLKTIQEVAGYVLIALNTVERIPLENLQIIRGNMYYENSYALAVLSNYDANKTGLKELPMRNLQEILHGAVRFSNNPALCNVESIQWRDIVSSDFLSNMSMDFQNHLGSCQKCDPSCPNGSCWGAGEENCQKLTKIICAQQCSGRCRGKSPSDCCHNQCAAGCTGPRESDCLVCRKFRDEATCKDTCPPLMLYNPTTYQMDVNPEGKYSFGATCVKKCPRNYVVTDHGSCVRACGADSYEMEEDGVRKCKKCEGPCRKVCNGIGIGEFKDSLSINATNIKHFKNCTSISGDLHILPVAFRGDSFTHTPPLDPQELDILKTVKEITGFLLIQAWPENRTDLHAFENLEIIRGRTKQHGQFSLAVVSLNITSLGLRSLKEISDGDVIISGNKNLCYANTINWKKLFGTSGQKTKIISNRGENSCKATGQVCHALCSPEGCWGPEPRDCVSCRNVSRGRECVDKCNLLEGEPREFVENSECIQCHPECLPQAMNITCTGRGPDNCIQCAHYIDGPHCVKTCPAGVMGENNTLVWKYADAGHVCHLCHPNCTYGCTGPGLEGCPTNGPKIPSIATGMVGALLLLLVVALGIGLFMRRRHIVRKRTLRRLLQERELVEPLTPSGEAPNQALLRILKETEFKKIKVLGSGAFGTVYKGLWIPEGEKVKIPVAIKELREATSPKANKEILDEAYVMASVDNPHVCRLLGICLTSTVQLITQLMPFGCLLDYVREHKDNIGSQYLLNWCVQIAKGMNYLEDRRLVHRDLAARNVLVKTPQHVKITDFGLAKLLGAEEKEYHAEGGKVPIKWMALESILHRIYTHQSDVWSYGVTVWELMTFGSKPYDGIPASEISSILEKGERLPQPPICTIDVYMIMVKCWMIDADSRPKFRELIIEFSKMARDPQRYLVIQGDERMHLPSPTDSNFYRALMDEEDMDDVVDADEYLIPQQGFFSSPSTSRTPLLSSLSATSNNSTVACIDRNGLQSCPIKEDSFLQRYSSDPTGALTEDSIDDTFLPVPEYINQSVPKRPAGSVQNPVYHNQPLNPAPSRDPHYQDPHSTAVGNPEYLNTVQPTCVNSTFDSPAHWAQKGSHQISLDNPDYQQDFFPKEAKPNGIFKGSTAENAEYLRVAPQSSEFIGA
Put plainly: EGFR kinase assay in vitro. Type of series: biochemical. As to conditions: Kinase-Glo, erlotinib 100nM.

Setting [3] is: with CDDP (10 µM), read-out: IC50 CDDP.
The mark [4] stands for this setting: with erlotinib (20 µM), read-out: IC50 Erlotinib.

Each structure is given as a SMILES string. Where two headings read alike, the source gives them in different places.

T2 sequence (O00264 44-195): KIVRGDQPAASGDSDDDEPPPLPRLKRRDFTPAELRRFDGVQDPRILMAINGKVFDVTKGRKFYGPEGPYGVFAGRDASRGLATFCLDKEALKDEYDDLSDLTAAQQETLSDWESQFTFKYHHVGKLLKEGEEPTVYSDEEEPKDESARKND
Method for EGFR kinase: The assay was performed using an EGFR kinase assay kit (BPS Bioscience, San Diego, CA, USA). EGFR kinase activity was analyzed by measuring the amount of ATP remaining following the kinase reaction based on luminescent intensity using Kinase-Glo MAX (Promega, Madison, WI, USA). A mixture of kinase buffer, ATP, and PTK substrate was incubated with EGFR (1 ng/µL) with or without GL or GlucoGL at 30 °C for 40 min. Kinase-Glo max was added to each well and incubated at room temperature for 15 min under light protection. Luminescent intensity was measured using a microplate reader.

What is called IC50 is the point on the concentration scale where inhibition reaches its midpoint. With `CC1(C(=O)O)CCC2(C)CCC3(C)C(=CC(=O)C4C5(C)CCC(OC6OC(C(=O)O)C(O)C(O)C6OC6OC(CO)C(O)C(O)C6O)C(C)(C)C5CCC43C)C2C1` (centres unmarked) [Glucoglycyrrhizin (GlucoGL), Glucoglycyrrhizin], the “Uptake of labelled EGF” value in series [1] was “significantly suppressed”. In addition, the “KD for HMGB1” value at HMGB1 is “weak binding”. Also, the “Interaction between PGRMC1 and CYP3A4” value in series [2] is listed as “interfered with the interaction”. The half-inhibitory concentration (IC50) in the series with HCT116 cells (setting [3]) worked out at 14.9 µM; in the series with HCT116 cells (setting [4]), 15.7 µM. Also, the “Cell viability with erlotinib or CDDP” value in the series on HuH7 cells was “significantly suppressed cell viability”. On EGFR kinase, the EGFR kinase activity entry was “no inhibitory effect”.

The term Kd denotes the concentration at which binding is half-saturated. Regarding `CC1(C)[C@@H](O[C@H]2O[C@H](C(=O)O)[C@@H](O)[C@H](O)[C@H]2O[C@@H]2O[C@H](C(=O)O)[C@@H](O)[C@H](O)[C@H]2O)CC[C@]2(C)[C@H]3C(=O)C=C4[C@@H]5C[C@@](C)(C(=O)O)CC[C@]5(C)CC[C@@]4(C)[C@]3(C)CC[C@@H]12` [Glycyrrhizin (GL), Glycyrrhizin], in series [1], the “Uptake of labelled EGF” value is “significantly suppressed”. Further, the affinity at HMGB1, expressed as Kd, was 223 µM. Besides, the “Interaction between PGRMC1 and CYP3A4” value in series [2] is “interfered with the interaction”. For the same compound, the IC50 in the series with HCT116 cells (setting [3]) was 53.1 µM; in the series on HCT116 cells (setting [4]), 52 µM. In addition, in the series with HuH7 cells, the “Cell viability with erlotinib or CDDP” value is listed as “significantly suppressed cell viability”. The EGFR kinase activity result on EGFR kinase was “no inhibitory effect”.
